# Laboratory results as given in article PMC4370192, “Discovery of Specific Inhibitors for Intestinal E. coli β-Glucuronidase through In Silico Virtual Screening” (The Scientific World Journal, 2015).
# How the values were obtained:
# [1] = target: T1, E. coli β-glucuronidase (eβG) (Escherichia coli, UniProt P05804); assay: In vitro βG-activity assay (pNPG hydrolysis), eβG; assay type: biochemical; details: for eβG activity (%) with 50 μM compound: pH 7.3, percent of activity vs untreated control
# T1 construct: histidine tag (N); made in house; host or cells: E. coli BL21 (DE3)
# T1 sequence (P05804 whole entry): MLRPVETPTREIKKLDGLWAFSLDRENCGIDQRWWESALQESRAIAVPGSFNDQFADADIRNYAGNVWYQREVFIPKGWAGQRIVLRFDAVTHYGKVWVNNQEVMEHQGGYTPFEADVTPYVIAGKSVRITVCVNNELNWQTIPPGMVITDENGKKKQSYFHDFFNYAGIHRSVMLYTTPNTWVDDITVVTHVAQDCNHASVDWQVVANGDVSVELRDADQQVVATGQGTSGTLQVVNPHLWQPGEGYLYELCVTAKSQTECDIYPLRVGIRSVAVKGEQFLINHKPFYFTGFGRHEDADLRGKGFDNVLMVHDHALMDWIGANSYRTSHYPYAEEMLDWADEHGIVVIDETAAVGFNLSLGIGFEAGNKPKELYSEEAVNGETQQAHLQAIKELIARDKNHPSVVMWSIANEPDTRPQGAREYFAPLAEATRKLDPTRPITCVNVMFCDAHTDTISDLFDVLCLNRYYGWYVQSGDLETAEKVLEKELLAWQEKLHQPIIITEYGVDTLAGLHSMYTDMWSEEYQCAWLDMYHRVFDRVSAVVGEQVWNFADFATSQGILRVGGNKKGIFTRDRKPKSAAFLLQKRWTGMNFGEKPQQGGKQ
# Description: (§1) Plasmid pRESTB containing βG gene and a histidine tag at the N-terminus was constructed as described. Recombinant βG (human and E. coli) was produced by isopropyl β-D-thiogalactopyranoside (IPTG) induction of BL21 (DE3) bacteria. βG was purified from bacterial supernatants by affinity chromatography on nickels Sepharose 6 Fast Flow (GE Healthcare). The column was washed by phosphate-buffered saline (PBS), with 50 mM imidazole, and βG was eluted by PBS with 250 mM imidazole. The purified βG was desalted on a Sephadex G-25 column equilibrated with PBS and stored at −80°C.
# The candidate compounds were purchased from SPECS (The Netherlands). Each candidate was provided as a solid power and dissolved in 100% DMSO (Sigma-Aldrich) to 10 mM as stock. Candidates were screened for their inhibition specificity of eβG versus hβG, which were conducted at pH 7.3 or pH 5.4, in triplicate, respectively. 40 μL purified βG was treated with 10 μL compound solution at 37°C for 30 min and sequentially incubated with 50 μL of pNPG (Sigma-Aldrich) at 37°C for 30 min. Reactions were quenched with 5 μL of 2 N sodium hydroxide (Sigma-Aldrich). Each reaction consisted of 3.75 ng purified βG, 50 μM compound, and 5 mM pNPG in PBS containing 10% DMSO and 0.05% BSA (Sigma-Aldrich). βG-activities were measured by color development of pNP detected on a microplate reader at OD 405 nm. […] For IC50 determination, compounds at various concentrations (100 μM to 0.001 μM) were added.
# Supplementary file 740815.f1.pdf: Fifty-nine candidate compounds were acquired from the initial virtually screening which was designed to target the bacterial loop of eβG and its active site. The docking energy scores of 59 candidate compounds measured by the DOCK program are -43 to -55 kcal/mol. (Table S1) The candidate compounds were purchased from SPECS (Zoetermeer, The Netherlands). Each candidate was rovided as a solid power and dissolved in 100% DMSO (Sigma-Aldrich, MO, USA) to 10 mM as stock. Candidates were screening for their inhibition specificity of eβG verse hβG, which were conducted at pH 7.3 or pH 5.4 in triplicate, respectively. 40 µL purified βG was treated with 10 µL compound solution at 37 °C for 30 min, and sequentially incubated with 50 µL of pNPG (Sigma-Aldrich) at 37 °C for 30 min. Reactions were quenched with 5 µL of 2 N sodium hydroxide (Sigma-Aldrich). Each reaction consisted of 3.75 ng purified βG, 50 µM compound, and 5 mM pNPG in PBS containing 10% DMSO and 0.05% BSA (Sigma-Aldrich). βG-activities were measured by color development of pNP detected on a microplate reader at OD 405 nm. […] Especially, the inhibiting ability against eβG activity was >95% in 7 candidates of eβG specific inhibitors (Table S1).
# (§2) Fifty-nine candidate compounds were acquired from the initial virtually screening which was designed to target the bacterial loop of eβG and its active site. The docking energy scores of 59 candidate compounds measured by the DOCK program are -43 to -55 kcal/mol. (Table S1) The candidate compounds were purchased from SPECS (Zoetermeer, The Netherlands). Each candidate was provided as a solid power and dissolved in 100% DMSO (Sigma-Aldrich, MO, USA) to 10 mM as stock. Candidates were screening for their inhibition specificity of eβG verse hβG, which were conducted at pH 7.3 or pH 5.4 in triplicate, respectively. 40 μL purified βG was treated with 10 μL compound solution at 37 °C for 30 min, and sequentially incubated with 50 μL of pNPG (Sigma-Aldrich) at 37 °C for 30 min. Reactions were quenched with 5 μL of 2 N sodium hydroxide (Sigma-Aldrich). Each reaction consisted of 3.75 ng purified βG, 50 μM compound, and 5 mM pNPG in PBS containing 10% DMSO and 0.05% BSA (Sigma-Aldrich). βG-activities were measured by color development of pNP detected on a microplate reader at OD 405 nm. […]
# percent of βG activity compared with the untreated control.
# Especially, the inhibiting ability against eβG activity was >95% in 7 candidates of eβG specific inhibitors (Table S1).
# Table S1. […]
# human βG (hβG) = target: T2, human βG (hβG) (Homo sapiens, UniProt P08236); assay: In vitro βG-activity assay (pNPG hydrolysis), hβG; assay type: biochemical; details: pH 5.4, percent of activity vs untreated control
# T2 construct: histidine tag (N); made in house; host or cells: E. coli BL21 (DE3)
# T2 sequence (P08236 23-651): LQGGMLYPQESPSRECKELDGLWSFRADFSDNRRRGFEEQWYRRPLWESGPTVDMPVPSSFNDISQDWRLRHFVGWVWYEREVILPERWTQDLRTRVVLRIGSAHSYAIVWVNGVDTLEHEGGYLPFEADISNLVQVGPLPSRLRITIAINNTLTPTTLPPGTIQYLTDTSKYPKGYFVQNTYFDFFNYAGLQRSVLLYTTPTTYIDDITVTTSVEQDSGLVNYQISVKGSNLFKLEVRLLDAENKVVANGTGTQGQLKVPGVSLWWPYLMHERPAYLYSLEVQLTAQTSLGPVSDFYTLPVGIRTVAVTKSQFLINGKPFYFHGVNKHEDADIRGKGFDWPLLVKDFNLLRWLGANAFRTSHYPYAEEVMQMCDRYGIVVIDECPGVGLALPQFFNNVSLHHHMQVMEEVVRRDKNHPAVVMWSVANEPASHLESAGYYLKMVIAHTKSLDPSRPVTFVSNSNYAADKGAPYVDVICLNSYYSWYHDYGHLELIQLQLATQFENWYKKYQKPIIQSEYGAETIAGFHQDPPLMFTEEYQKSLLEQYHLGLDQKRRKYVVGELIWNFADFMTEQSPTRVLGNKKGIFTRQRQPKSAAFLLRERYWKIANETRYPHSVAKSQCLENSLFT
# Description: as §1
# The candidate compounds were purchased from SPECS (The Netherlands). Each candidate was provided as a solid power and dissolved in 100% DMSO (Sigma-Aldrich) to 10 mM as stock. Candidates were screened for their inhibition specificity of eβG versus hβG, which were conducted at pH 7.3 or pH 5.4, in triplicate, respectively. 40 μL purified βG was treated with 10 μL compound solution at 37°C for 30 min and sequentially incubated with 50 μL of pNPG (Sigma-Aldrich) at 37°C for 30 min. Reactions were quenched with 5 μL of 2 N sodium hydroxide (Sigma-Aldrich). Each reaction consisted of 3.75 ng purified βG, 50 μM compound, and 5 mM pNPG in PBS containing 10% DMSO and 0.05% BSA (Sigma-Aldrich). βG-activities were measured by color development of pNP detected on a microplate reader at OD 405 nm.
# as §2, with “(Table” for “Fifty-nine candidate compounds were acquired from the initial virtually screening which was designed to target the bacterial loop of eβG and its active site. The docking energy scores of 59 candidate compounds measured by the DOCK program are -43 to -55 kcal/mol. (Table”, “rovided” for “provided”, “µL” for “μL”, “µM” for “μM”
# candidate compounds were purchased from SPECS (Zoetermeer, The Netherlands). Each candidate was provided as a solid power and dissolved in 100% DMSO (Sigma-Aldrich, MO, USA) to 10 mM as stock. Candidates were screening for their inhibition specificity of eβG verse hβG, which were conducted at pH 7.3 or pH 5.4 in triplicate, respectively. 40 μL purified βG was treated with 10 μL compound solution at 37 °C for 30 min, and sequentially incubated with 50 μL of pNPG (Sigma-Aldrich) at 37 °C for 30 min. Reactions were quenched with 5 μL of 2 N sodium hydroxide (Sigma-Aldrich). Each reaction consisted of 3.75 ng purified βG, 50 μM compound, and 5 mM pNPG in PBS containing 10% DMSO and 0.05% BSA (Sigma-Aldrich). βG-activities were measured by color development of pNP detected on a microplate reader at OD 405 nm.
Structure (SMILES),eβG activity (%) with 50 μM compound [1] [%],hβG activity (%) with 50 μM compound (human βG (hβG)) [%],inhibition at 10 µM ([1]; read-out: inhibition of eβG activity) [%],"IC50 ([1]; recombinant eβG, pNPG substrate, pH 7.3) [nM]"
COc1cc(C(=O)NCC(=N)N)cc(OC)c1OC [Compound 0015],17.59,108.51,–,–
COc1cc2ccccc2cc1C(=O)N1CCN(C)CC1 [Compound 0030],58.19,111.74,–,–
Cc1cc2nc(C[n+]3cccc(C(N)=O)c3)[nH]c2cc1C [Compound 0136],19.16,108.76,–,–
CN1CCN(CC(=O)Nc2c(C#N)cnn2-c2ccccc2)CC1 [Compound 0220],47.15,113.55,–,–
CCOC(=O)N1CCC2(CC1)OS(=O)(=O)C=C2N [Compound 0523],31.77,109.26,–,–
Cc1cccc2n(C)c(/C=N/N=C(N)N)c[n+]12 [Compound 0956],29.70,103.31,–,–
O=C(O)C1CCCCC1C(=O)Nc1ccc(Oc2ccc(Cl)cc2)cc1 (stereo not drawn) [Compound 1013],34.76,126.45,–,–
CCN1C(=O)c2cccc3c(S(=O)(=O)N4CCN(C)CC4)ccc1c23 [Compound 1046],45.94,106.69,–,–
CCOC(=O)c1ccc(NC(=S)N2CCN(C)CC2)cc1 [Compound 1089],47.22,119.17,–,–
Cc1cc(/C=C2\SC(=Nc3ccc(F)cc3)NC2=O)c(C)n1-c1ccc(S(N)(=O)=O)cc1 [Compound 1135],3.70,118.10,–,–
Cc1ccccc1NC(=O)c1cccc(NC(=O)c2cc(Cl)c(Cl)cc2C(=O)O)c1 [Compound 1306],29.20,105.45,–,–
Cc1ccc(Cl)cc1NC1=NS(=O)(=O)c2ccccc21 [Compound 1448],11.11,109.67,–,–
CCc1sc(NC(=O)C2CCCCC2C(=O)O)nc1-c1ccccc1 (stereo not drawn) [Compound 1501],27.85,105.12,–,–
NC(N)=Nc1nc2ccc(Br)cc2c(=O)[nH]1 [Compound 2020],13.68,84.13,–,–
N=c1c(Nc2ccc(F)cc2)nnc(N)n1C(=O)c1ccccc1 [Compound 2074],12.46,101.07,–,–
CNC(=S)Nn1cnc2c(cnn2-c2ccccc2)c1=N [Compound 2138],19.23,107.27,–,–
CN1CCN(C(=O)c2cc3cc([N+](=O)[O-])ccc3oc2=O)CC1 [Compound 2715],53.06,114.38,–,–
Cc1cccnc1NCn1c(=O)oc2cc([N+](=O)[O-])ccc21 [Compound 3043],25.14,103.55,–,–
CN1CCN(Cc2nc3sc4c(c3c(=O)[nH]2)CCCC4)CC1 [Compound 3181],30.27,88.02,–,–
COc1cc(C(=O)OC(C)CN2CCN(C)CC2)cc(OC)c1OC (stereo not drawn) [Compound 3250],33.62,96.94,–,–
CC(CNS(=O)(=O)c1ccc(Cl)cc1)n1cncn1 (stereo not drawn) [Compound 3379],31.70,102.56,–,–
O=C1SCCC1NS(=O)(=O)c1cc(Cl)ccc1Cl (stereo not drawn) [Compound 3927],18.73,106.86,–,–
Cc1ccc2c(c1)C1CN(C)CCC1N2C(=O)c1cc(Cl)ccc1[N+](=O)[O-] (stereo not drawn) [Compound 3959],42.88,105.45,–,–
"Cc1ccc(S(=O)(=O)N=C2C=C(Sc3nnc[nH]3)C(=O)c3ccccc32)cc1 [Compound 4041, 4-methyl-N-(4-oxo-3-(1H-1,2,4-triazol-5ylsulfanyl)-1(4H)-naphthalenylidene)benzenesulfonamide]",–,–,> 80,2800
